Laboratory results published in patent publication US6407094B1, “Glutamate receptor antagonists” (Hoffmann-la Roche Inc., priority 1999, dated 2002).

SMILES	melting point
Cc1cc2c(cc1C#Cc1ccccc1)NC(=O)CC(c1cccc(C#N)c1)=N2 [Example 4, 3-(8-Methyl-4-oxo-7-phenylethynyl-4,5-dihydro-3H-benzo[b][1,4]diazepin-2-yl)-benzonitrile]	237 to 239 °C (dec.)
CN1CCN(c2cc3c(cc2C#Cc2ccccc2)NC(=O)CC(c2cccc(C#N)c2)=N3)CC1 [Example 5, 3-[8-(4-Methyl-piperazin-1-yl)-4-oxo-7-phenylethynyl-4,5-dihydro-3H-benzo[b][1,4]diazepin-2-yl]-benzonitrile]	222 to 224 °C (dec.)
N#Cc1cccc(C2=Nc3cc(N4CCS(=O)(=O)CC4)c(C#Cc4ccccc4)cc3NC(=O)C2)c1 [Example 6, 3-[8-(1,1-Dioxo-thiomorpholin-4-yl)-4-oxo-7-phenylethynyl-4,5-dihydro-3H-benzo[b][1,4]diazepin-2-yl]-benzonitrile]	> 250 °C (dec.)
N#Cc1cccc(C2=Nc3cc(N4CCC5(CC4)OCCO5)c(C#Cc4ccccc4)cc3NC(=O)C2)c1 [Example 9, 3-[8-(1,4-Dioxa-8-aza-spiro[4.5]dec-8-yl)-4-oxo-7-phenylethynyl-4,5-dihydro-3H-benzo[b][1,4]diazepin-2-yl]-benzonitrile]	239 to 243 °C (dec.)
CN(C)CCSc1cc2c(cc1C#Cc1ccccc1)NC(=O)CC(c1cccc(C#N)c1)=N2 [Example 11, 3-[8-(2-Dimethylamino-ethylsulfanyl)-4-oxo-7-phenylethynyl-4,5-dihydro-3H-benzo[b][1,4]diazepin-2-yl]-benzonitrile]	197 °C (dec.)
N#Cc1cccc(C2=Nc3cc(SCC(=O)O)c(C#Cc4ccccc4)cc3NC(=O)C2)c1 [Example 13, [4-(3-Cyano-phenyl)-2-oxo-8-phenylethynyl-2,3-dihydro-1H-benzo[b][1,4]diazepin-7-ylsulfanyl]-acetic acid]	202 °C (dec.)
COC(=O)Cc1cc2c(cc1C#Cc1ccccc1)NC(=O)CC(c1cccc(C#N)c1)=N2 [Example 14, [4-(3-Cyano-phenyl)-2-oxo-8-phenylethynyl-2,3-dihydro-1H-benzo[b][1,4]diazepin-7-yl]-acetic acid methyl ester]	236 °C (dec.)
COCCOc1cc2c(cc1C#Cc1ccccc1)NC(=O)CC(c1cccc(C#N)c1)=N2 [Example 18, 3-[8-(2-Methoxy-ethoxy)-4-oxo-7-phenylethynyl-4,5-dihydro-3H-benzo[b][1,4]diazepin-2-yl]-benzonitrile]	174 to 176 °C
COC(=O)c1cc2c(cc1C#Cc1ccccc1)NC(=O)CC(c1cccc(C#N)c1)=N2 [Example 19, 4-(3-Cyano-phenyl)-2-oxo-8-phenylethynyl-2,3-dihydro-1H-benzo[b][1,4]diazepine-7-carboxylic acid methyl ester]	> 250 °C
N#Cc1cccc(C2=Nc3cc(OCC(=O)O)c(C#Cc4ccccc4)cc3NC(=O)C2)c1 [Example 22, [4-(3-Cyano-phenyl)-2-oxo-8-phenylethynyl-2,3-dihydro-1H-benzo[b][1,4]diazepin-7-yloxy]-acetic acid]	257 °C (dec.)
N#Cc1cccc(C2=Nc3cc(OCC(O)CO)c(C#Cc4ccccc4)cc3NC(=O)C2)c1 (stereo not drawn) [Example 24, 3-[8-(2,3-Dihydroxy-propoxy)-4-oxo-7-phenylethynyl-4,5-dihydro-3H-benzo[b][1,4]diazepin-2-yl]-benzonitrile]	230 to 234 °C (dec.)
CCOCc1cc2c(cc1C#Cc1ccccc1)NC(=O)CC(c1cccc(C#N)c1)=N2 [Example 29, 3-(8-Ethoxymethyl-4-oxo-7-phenylethynyl-4,5-dihydro-3H-benzo [b][1,4]diazepin-2-yl)-benzonitrile]	229 °C
CC(C)(C)C(=O)OCc1cc2c(cc1C#Cc1ccccc1)NC(=O)CC(c1cccc(C#N)c1)=N2 [Example 30, 2,2-Dimethyl-propionic acid 4-(3-cyano-phenyl)-2-oxo-8-phenylethynyl-2,3-dihydro-1H-benzo[b][1,4]diazepin-7-ylmethyl ester]	218 °C
N#Cc1cccc(C2=Nc3cc(CO)c(C#Cc4ccccc4)cc3NC(=O)C2)c1 [Example 31, 3-(8-Hydroxymethyl-4-oxo-7-phenylethynyl-4,5-dihydro-3H-benzo[b][1,4]diazepin-2-yl)-benzonitrile]	> 255 °C
COC1CCN(c2cc3c(cc2C#Cc2ccccc2)NC(=O)CC(c2cccc(-n4ccnc4)c2)=N3)CC1 [Example 33, 4-(3-Imidazol-1-yl-phenyl)-7-(4-methoxy-piperidin-1-yl)-8-phenylethynyl-1,3-dihydro-benzo[b][1,4]diazepin-2-one]	222 °C
COC1CCN(c2cc3c(cc2C#Cc2ccccc2)NC(=O)CC(c2cccc(C#N)c2)=N3)CC1 [Example 34, 3-[8-(4-Methoxy-piperidin-1-yl)-4-oxo-7-phenylethynyl-4,5-dihydro-3H-benzo[b][1,4]diazepin-2-yl]-benzonitrile]	250 to 251 °C
N#CCOc1cc2c(cc1C#Cc1ccccc1)NC(=O)CC(c1cccc(-n3ccnc3)c1)=N2 [Example 35, [4-(3-Imidazol-1-yl-phenyl)-2-oxo-8-phenylethynyl-2,3-dihydro-1H-benzo[b][1,4]diazepin-7-yloxy]-acetonitrile]	214 °C

SMILES	melting point
N#CCOc1cc2c(cc1C#Cc1ccccc1)NC(=O)CC(c1cccc(C#N)c1)=N2 [Example 36, 3-(8-Cyanomethoxy-4-oxo-7-phenylethynyl-4,5-dihydro-3H-benzo[b][1,4]diazepin-2-yl)-benzonitrile]	212 °C
CN(CCO)c1cc2c(cc1C#Cc1ccc(F)cc1)NC(=O)CC(c1cccc(-n3ccnc3)c1)=N2 [Example 38, 8-(4-Fluoro-phenylethynyl)-7-[(2-hydroxy-ethyl)-methyl-amino]-4-(3-imidazol-1-yl-phenyl)-1,3-dihydro-benzo[b][1,4]diazepin-2-one]	217 °C (dec.)
O=C1CCN(c2cc3c(cc2C#Cc2ccccc2)NC(=O)CC(c2cccc(-n4ccnc4)c2)=N3)CC1 [Example 39, 4-(3-Imidazol-1-yl-phenyl)-7-(4-oxo-piperidin-1-yl)-8-phenylethynyl-1,3-dihydro-benzo[b][1,4]diazepin-2-one]	231 °C (dec.)
CC(C)(C)NC(=O)COc1cc2c(cc1C#Cc1ccccc1)NC(=O)CC(c1cccc(C#N)c1)=N2 [Example 40, N-tert.-Butyl-2-[4-(3-cyano-phenyl)-2-oxo-8-phenylethynyl-2,3-dihydro-1H-benzo[b][1,4]diazepin-7-yloxy]-acetamide]	> 250 °C
CONC(=O)COc1cc2c(cc1C#Cc1ccccc1)NC(=O)CC(c1cccc(C#N)c1)=N2 [Example 41, 2-[4-(3-Cyano-phenyl)-2-oxo-8-phenylethynyl-2,3-dihydro-1H-benzo[b][1,4]diazepin-7-yloxy]-N-methoxy-acetamide]	> 250 °C
O=C1CC(c2cccc(-n3ccnc3)c2)=Nc2cc(N3CCC(O)CC3)c(-c3ccc(F)cc3)cc2N1 [Example 43, 8-(4-Fluoro-phenyl)-7-(4-hydroxy-piperidin-1-yl)-4-(3-imidazol-1-yl-phenyl)-1,3-dihydro-benzo[b][1,4]diazepin-2-one]	238 to 240 °C
O=C1CC(c2cccc(-n3ccnc3)c2)=Nc2cc(OCCO)c(C#Cc3ccc(F)cc3)cc2N1 [Example 44, 8-(4-Fluoro-phenylethynyl)-7-(2-hydroxy-ethoxy)-4-(3-imidazol-1-yl-phenyl)-1,3-dihydro-benzo[b][1,4]diazepin-2-one]	220 to 222 °C
O=C1CC(c2cccc(-n3ccnc3)c2)=Nc2cc(CO)c(-c3ccc(F)cc3)cc2N1 [Example 46, 8-(4-Fluoro-phenyl)-7-hydroxymethyl-4-(3-imidazol-1-yl-phenyl)-1,3-dihydro-benzo[b][1,4]diazepin-2-one]	180 to 195 °C
N#CCOc1cc2c(cc1-c1ccc(F)cc1)NC(=O)CC(c1cccc(-n3ccnc3)c1)=N2 [Example 47, [8-(4-Fluoro-phenyl)-4-(3-imidazol-1-yl-phenyl)-2-oxo-2,3-dihydro-1H-benzo[b][1,4]diazepin-7-yloxy]-acetonitrile]	164 °C
CN(C)Cc1cc2c(cc1-c1ccc(F)cc1)NC(=O)CC(c1cccc(-n3ccnc3)c1)=N2 [Example 48, 7-Dimethylaminomethyl-8-(4-fluoro-phenyl)-4-(3-imidazol-1-yl-phenyl)-1,3-dihydro-benzo[b][1,4]diazepin-2-one]	115 to 140 °C (dec.)
CC1(C)OC2CN(c3cc4c(cc3-c3ccc(F)cc3)NC(=O)CC(c3cccc(-n5ccnc5)c3)=N4)CC2O1 (stereo not drawn) [Example 49, 7-(2,2-Dimethyl-tetrahydro-[1,3]dioxolo [4,5-c]pyrrol-5-yl)-8-(4-fluoro-phenyl)-4-(3-imidazol-1-yl-phenyl)-1,3-dihydro-benzo[b][1,4]diazepin-2-one]	240 °C (dec.)
O=C1CC(c2cccc(-n3ccnc3)c2)=Nc2cc(N3C[C@@H](O)[C@@H](O)C3)c(-c3ccc(F)cc3)cc2N1 [Example 50, 7-(cis-3,4-Dihydroxy-pyrrolidin-1-yl)-8-(4-fluoro-phenyl)-4-(3-imidazol-1-yl-phenyl)-1,3-dihydro-benzo[b][1,4]diazepin-2-one]	244 °C
COc1cc2c(cc1-c1ccc(F)cc1)NC(=O)CC(c1cccc(-n3ccnc3)c1)=N2 [Example 51, 8-(4-Fluoro-phenyl)-4-(3-imidazol-1-yl-phenyl)-7-methoxy-1,3-dihydro-benzo[b][1,4]diazepin-2-one]	221 °C (dec.)
O=C1CCN(c2cc3c(cc2-c2ccc(F)cc2)NC(=O)CC(c2cccc(-n4ccnc4)c2)=N3)CC1 [Example 52, 8-(4-Fluoro-phenyl)-4-(3-imidazol-1-yl-phenyl)-7-(4-oxo-piperidin-1-yl)-1,3-dihydro-benzo[b][1,4]diazepin-2-one]	204 °C
Cc1cc2c(cc1-c1ccc(F)cc1)NC(=O)CC(c1cccc(-n3ccnc3)c1)=N2 [Example 53, 8-(4-Fluoro-phenyl)-4-(3-imidazol-1-yl-phenyl)-7-methyl-1,3-dihydro-benzo[b][1,4]diazepin-2-one]	196 °C
O=C1CC(c2cccc(-n3ccnc3)c2)=Nc2cc(Cl)c(-c3ccc(F)cc3)cc2N1 [Example 56, 7-Chloro-8-(4-fluoro-phenyl)-4-(3-imidazol-1-yl-phenyl)-1,3-dihydro-benzo[b][1,4]diazepin-2-one]	209 to 211 °C
